{"source": "paper PMC7708446", "about": "“^18F-meta-fluorobenzylguanidine (^18F-mFBG) to monitor changes in norepinephrine transporter expression in response to therapeutic intervention in neuroblastoma models” (Scientific Reports, 2020)", "key": {"SK-N-BE(2)C xenografts [1]": {"tested_on": "SK-N-BE(2)C xenografts", "assay": "Ex vivo biodistribution (γ-counter), mice bearing SK-N-BE(2)C xenografts", "assay_type": "in vivo", "settings": "SK-N-BE(2)C", "description": "All studies were conducted in compliance with licenses issued under the UK Animals (Scientific Procedures) Act 1986 and approved by the Institute of Cancer Research Animal Welfare and Ethical Review Body (AWERB) according to the United Kingdom National Cancer Research Institute Guidelines for Animal Welfare in Cancer Research (project license PCC916B22, Animals in Science Regulation Unit, Home Office Science, London, UK)[65]. Female Nu(NCr)-Foxn1nu mice (5–7 weeks; 20–22 g) obtained from an in-house breeding colony were used in the studies. Animals were housed in a temperature-controlled facility with 12 h on–12 h off light cycle and provided water and laboratory rodent food ad libitum. Subcutaneous xenografts were generated by injection of either Kelly (5 × 10^6/0.1 mL PBS/Matrigel 30% v/v; BD Matrigel Matrix, BD Bioscience, San Jose, California, US) or SK-N-BE(2)C (1 × 10^6/0.1 mL PBS/Matrigel) into the lower flank. For the treatment studies, AZD2014 stock solution in DMSO was diluted in PEG400 to a final concentration of 2 mg/mL (10% DMSO maximum). When tumours reached ~ 100 mm^3 (calliper measurements using formula: Volume = (Width(2) × Length)/2), mice were treated daily, for a total of either 1, 3 or 7 days, by oral gavage with AZD2014 (20 or 25 mg/kg/day) or vehicle control. Mice were monitored daily for body weight or other adverse effects.\n(§1) When the tumours reached approximately 100–200 mm^3, mice were anaesthetised with an isoflurane/O2 mixture (1.5–2.0% v/v) and intravenously injected with either ^18F-mFBG (~ 7.5 MBq) or ^123I-mIBG (~ 20 MBq). Mice were then imaged using an Albira PET/SPECT/CT scanner (Bruker, Coventry, UK). Whole body PET static images were acquired after 1 and 4 h post-injection (p.i.) for 10 min with an energy window of 358 to 664 keV followed by CT acquisition. Acquisition, reconstruction and image analysis were performed as described previously. Following the final scan, the mice were sacrificed and the major organs were excised, weighed and their associated radioactivity was measured using a γ-counter. Biodistribution and image quantification were expressed as a percentage of injected dose per gram of tissue (%ID/g), whereby 1 cm^3 on PET acquisitions were assumed to equal 1 g (n ≥ 3 mice ± SD)."}, "NET-1": {"target": "T1, NET-1 (Homo sapiens, UniProt P23975)", "T1 construct": "SK-N-SH, SK-N-BE(2)C, Kelly, NBLS human NB cell lines; endogenous in cells; host or cells: SK-N-SH, SK-N-BE(2)C, Kelly, NBLS human neuroblastoma cell lines", "T1 sequence (P23975 whole entry)": "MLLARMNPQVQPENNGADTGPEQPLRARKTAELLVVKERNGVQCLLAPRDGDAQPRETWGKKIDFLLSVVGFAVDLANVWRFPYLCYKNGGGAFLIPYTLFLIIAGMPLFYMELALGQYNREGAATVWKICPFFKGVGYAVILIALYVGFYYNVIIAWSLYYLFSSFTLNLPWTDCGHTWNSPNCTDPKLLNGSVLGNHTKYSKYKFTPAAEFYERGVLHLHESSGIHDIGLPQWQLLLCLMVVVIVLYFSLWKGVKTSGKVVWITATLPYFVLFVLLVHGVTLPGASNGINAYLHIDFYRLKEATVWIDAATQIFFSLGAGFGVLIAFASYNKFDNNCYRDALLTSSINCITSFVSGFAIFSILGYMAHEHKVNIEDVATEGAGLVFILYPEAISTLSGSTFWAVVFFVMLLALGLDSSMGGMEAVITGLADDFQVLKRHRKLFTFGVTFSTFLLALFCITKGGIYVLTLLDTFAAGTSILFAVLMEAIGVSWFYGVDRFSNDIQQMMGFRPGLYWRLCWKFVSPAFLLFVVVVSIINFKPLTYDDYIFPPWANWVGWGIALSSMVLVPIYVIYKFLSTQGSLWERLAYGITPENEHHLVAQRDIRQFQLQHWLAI", "assay": "^18F-mFBG / ^123I-mIBG uptake in NB cell lines with and without desipramine", "assay_type": "cell-based", "settings": "1 h at 37 °C, rank among Kelly, SK-N-SH, NBLS", "from_the_text": "Figure 1 (a) Simplified radiosynthesis scheme of ^18F-mFBG by copper-mediated deborylation. (b) Total NET-1 protein expression in selected NB cell lines determined by Western blot. Full length blots are presented in Supplementary Figure WB1. […] Data are presented as mean ± SEM, n ≥ 2 per group, performed in triplicate. Graphs are generated using GraphPad Prism (v 8.4.1), https://www.graphpad.com.\nFor each cell line the cell-associated radioactivity was normalised to the number of cells and then each group was presented as a percentage of the signal acquired for SK-N-BE(2)C cells (mean of n = 3 independent experiments performed in triplicate ± SEM)."}, "SK-N-BE(2)C xenografts [2]": {"tested_on": "SK-N-BE(2)C xenografts", "assay": "PET quantification of tumour uptake, SK-N-BE(2)C xenografts", "assay_type": "in vivo, mice", "description": "as §1"}}, "note": "Marks after values point to notes of the source that are not given here.", "data": [{"smiles": "N=C(N)NCc1cccc([18F])c1", "note": "[^18F-mFBG, ^18F-meta-fluorobenzylguanidine]", "values": [{"measurement": "^18F-mFBG biodistribution 4 h p.i., Tumour:muscle", "setting": "SK-N-BE(2)C xenografts [1]; 1 day vehicle", "result": "4.44 ± 0.94"}, {"measurement": "^18F-mFBG biodistribution 4 h p.i., Blood", "setting": "SK-N-BE(2)C xenografts [1]; 3 day vehicle", "result": "0.18 ± 0.08", "unit": "%ID/g"}, {"measurement": "^18F-mFBG biodistribution 4 h p.i., Bone", "setting": "SK-N-BE(2)C xenografts [1]; 3 day vehicle", "result": "1.64 ± 0.45", "unit": "%ID/g"}, {"measurement": "^18F-mFBG biodistribution 4 h p.i., Brown adipose", "setting": "SK-N-BE(2)C xenografts [1]; 3 day vehicle", "result": "5.15 ± 0.78^b %ID/g"}, {"measurement": "^18F-mFBG biodistribution 4 h p.i., Heart", "setting": "SK-N-BE(2)C xenografts [1]; 3 day vehicle", "result": "3.64 ± 0.89", "unit": "%ID/g"}, {"measurement": "^18F-mFBG biodistribution 4 h p.i., Kidney", "setting": "SK-N-BE(2)C xenografts [1]; 3 day vehicle", "result": "1.13 ± 0.47", "unit": "%ID/g"}, {"measurement": "^18F-mFBG biodistribution 4 h p.i., Liver", "setting": "SK-N-BE(2)C xenografts [1]; 3 day vehicle", "result": "1.96 ± 0.02", "unit": "%ID/g"}, {"measurement": "^18F-mFBG biodistribution 4 h p.i., Lungs", "setting": "SK-N-BE(2)C xenografts [1]; 3 day vehicle", "result": "1.15 ± 0.23", "unit": "%ID/g"}, {"measurement": "^18F-mFBG biodistribution 4 h p.i., Muscle", "setting": "SK-N-BE(2)C xenografts [1]; 3 day vehicle", "result": "0.53 ± 0.19", "unit": "%ID/g"}, {"measurement": "^18F-mFBG biodistribution 4 h p.i., Pancreas", "setting": "SK-N-BE(2)C xenografts [1]; 3 day vehicle", "result": "1.25 ± 0.51", "unit": "%ID/g"}, {"measurement": "^18F-mFBG biodistribution 4 h p.i., Small intestine", "setting": "SK-N-BE(2)C xenografts [1]; 3 day vehicle", "result": "5.32 ± 0.11", "unit": "%ID/g"}, {"measurement": "^18F-mFBG biodistribution 4 h p.i., Spleen", "setting": "SK-N-BE(2)C xenografts [1]; 3 day vehicle", "result": "2.08 ± 1.29", "unit": "%ID/g"}, {"measurement": "^18F-mFBG biodistribution 4 h p.i., Tumour", "setting": "SK-N-BE(2)C xenografts [1]; 3 day vehicle", "result": "2.39 ± 0.10", "unit": "%ID/g"}, {"measurement": "^18F-mFBG biodistribution 4 h p.i., Tumour:blood", "setting": "SK-N-BE(2)C xenografts [1]; 3 day vehicle", "result": "14.47 ± 4.61"}, {"measurement": "^18F-mFBG biodistribution 4 h p.i., Tumour:muscle", "setting": "SK-N-BE(2)C xenografts [1]; 3 day vehicle", "result": "4.89 ± 1.48"}, {"measurement": "^18F-mFBG biodistribution 4 h p.i., Blood", "setting": "SK-N-BE(2)C xenografts [1]; 7 day AZD2014 (20 mg/kg/day)", "result": "0.32 ± 0.14", "unit": "%ID/g"}, {"measurement": "^18F-mFBG biodistribution 4 h p.i., Bone", "setting": "SK-N-BE(2)C xenografts [1]; 7 day AZD2014 (20 mg/kg/day)", "result": "0.63 ± 0.54", "unit": "%ID/g"}, {"measurement": "^18F-mFBG biodistribution 4 h p.i., Brown adipose", "setting": "SK-N-BE(2)C xenografts [1]; 7 day AZD2014 (20 mg/kg/day)", "result": "8.08 ± 0.72", "unit": "%ID/g"}, {"measurement": "^18F-mFBG biodistribution 4 h p.i., Heart", "setting": "SK-N-BE(2)C xenografts [1]; 7 day AZD2014 (20 mg/kg/day)", "result": "4.17 ± 1.63", "unit": "%ID/g"}, {"measurement": "^18F-mFBG biodistribution 4 h p.i., Kidney", "setting": "SK-N-BE(2)C xenografts [1]; 7 day AZD2014 (20 mg/kg/day)", "result": "1.02 ± 0.15", "unit": "%ID/g"}, {"measurement": "^18F-mFBG biodistribution 4 h p.i., Liver", "setting": "SK-N-BE(2)C xenografts [1]; 7 day AZD2014 (20 mg/kg/day)", "result": "2.64 ± 0.46", "unit": "%ID/g"}, {"measurement": "^18F-mFBG biodistribution 4 h p.i., Lungs", "setting": "SK-N-BE(2)C xenografts [1]; 7 day AZD2014 (20 mg/kg/day)", "result": "1.33 ± 0.36", "unit": "%ID/g"}, {"measurement": "^18F-mFBG biodistribution 4 h p.i., Muscle", "setting": "SK-N-BE(2)C xenografts [1]; 7 day AZD2014 (20 mg/kg/day)", "result": "0.75 ± 0.02", "unit": "%ID/g"}, {"measurement": "^18F-mFBG biodistribution 4 h p.i., Pancreas", "setting": "SK-N-BE(2)C xenografts [1]; 7 day AZD2014 (20 mg/kg/day)", "result": "3.08 ± 1.80", "unit": "%ID/g"}, {"measurement": "^18F-mFBG biodistribution 4 h p.i., Small intestine", "setting": "SK-N-BE(2)C xenografts [1]; 7 day AZD2014 (20 mg/kg/day)", "result": "6.87 ± 1.86", "unit": "%ID/g"}, {"measurement": "^18F-mFBG biodistribution 4 h p.i., Spleen", "setting": "SK-N-BE(2)C xenografts [1]; 7 day AZD2014 (20 mg/kg/day)", "result": "1.64 ± 0.46", "unit": "%ID/g"}, {"measurement": "^18F-mFBG biodistribution 4 h p.i., Tumour", "setting": "SK-N-BE(2)C xenografts [1]; 7 day AZD2014 (20 mg/kg/day)", "result": "2.61 ± 1.19", "unit": "%ID/g"}, {"measurement": "^18F-mFBG biodistribution 4 h p.i., Tumour:blood", "setting": "SK-N-BE(2)C xenografts [1]; 7 day AZD2014 (20 mg/kg/day)", "result": "8.06 ± 2.57"}, {"measurement": "^18F-mFBG biodistribution 4 h p.i., Tumour:muscle", "setting": "SK-N-BE(2)C xenografts [1]; 7 day AZD2014 (20 mg/kg/day)", "result": "3.50 ± 1.62"}, {"measurement": "^18F-mFBG biodistribution 4 h p.i., Blood", "setting": "SK-N-BE(2)C xenografts [1]; 7 day vehicle", "result": "0.17 ± 0.06", "unit": "%ID/g"}, {"measurement": "^18F-mFBG biodistribution 4 h p.i., Bone", "setting": "SK-N-BE(2)C xenografts [1]; 7 day vehicle", "result": "1.13 ± 0.20", "unit": "%ID/g"}, {"measurement": "^18F-mFBG biodistribution 4 h p.i., Brown adipose", "setting": "SK-N-BE(2)C xenografts [1]; 7 day vehicle", "result": "6.08 ± 2.45", "unit": "%ID/g"}, {"measurement": "^18F-mFBG biodistribution 4 h p.i., Heart", "setting": "SK-N-BE(2)C xenografts [1]; 7 day vehicle", "result": "5.87 ± 2.80", "unit": "%ID/g"}, {"measurement": "^18F-mFBG biodistribution 4 h p.i., Kidney", "setting": "SK-N-BE(2)C xenografts [1]; 7 day vehicle", "result": "1.09 ± 0.16", "unit": "%ID/g"}, {"measurement": "^18F-mFBG biodistribution 4 h p.i., Liver", "setting": "SK-N-BE(2)C xenografts [1]; 7 day vehicle", "result": "2.15 ± 0.30", "unit": "%ID/g"}, {"measurement": "^18F-mFBG biodistribution 4 h p.i., Lungs", "setting": "SK-N-BE(2)C xenografts [1]; 7 day vehicle", "result": "1.86 ± 0.64", "unit": "%ID/g"}, {"measurement": "^18F-mFBG biodistribution 4 h p.i., Muscle", "setting": "SK-N-BE(2)C xenografts [1]; 7 day vehicle", "result": "0.67 ± 0.07", "unit": "%ID/g"}, {"measurement": "^18F-mFBG biodistribution 4 h p.i., Pancreas", "setting": "SK-N-BE(2)C xenografts [1]; 7 day vehicle", "result": "2.81 ± 1.72", "unit": "%ID/g"}, {"measurement": "^18F-mFBG biodistribution 4 h p.i., Small intestine", "setting": "SK-N-BE(2)C xenografts [1]; 7 day vehicle", "result": "6.22 ± 0.35", "unit": "%ID/g"}, {"measurement": "^18F-mFBG biodistribution 4 h p.i., Spleen", "setting": "SK-N-BE(2)C xenografts [1]; 7 day vehicle", "result": "1.75 ± 0.67", "unit": "%ID/g"}, {"measurement": "^18F-mFBG biodistribution 4 h p.i., Tumour", "setting": "SK-N-BE(2)C xenografts [1]; 7 day vehicle", "result": "2.17 ± 1.01", "unit": "%ID/g"}, {"measurement": "^18F-mFBG biodistribution 4 h p.i., Tumour:blood", "setting": "SK-N-BE(2)C xenografts [1]; 7 day vehicle", "result": "15.55 ± 13.55"}, {"measurement": "^18F-mFBG biodistribution 4 h p.i., Tumour:muscle", "setting": "SK-N-BE(2)C xenografts [1]; 7 day vehicle", "result": "3.36 ± 1.90"}, {"measurement": "cell-associated radioactivity, SK-N-BE(2)C", "setting": "NET-1", "result": "greatest uptake"}, {"measurement": "cell-associated radioactivity, Kelly", "setting": "NET-1; SK-N-BE(2)C", "result": "least uptake"}, {"measurement": "PET tumour uptake", "setting": "SK-N-BE(2)C xenografts [2]; 1 h p.i., n = 21", "result": "2.46 ± 0.71", "unit": "%ID/g"}, {"measurement": "PET tumour uptake", "setting": "SK-N-BE(2)C xenografts [2]; 4 h p.i., n = 15", "result": "3.88 ± 1.15", "unit": "%ID/g"}]}]}
